Data set [1] relates to HEK-293T transduced with the aMinoC1 transmembrane receptor. The experiment in a line: Flow cytometry of peptide-muIgG2a Fc binding to cells with aMinoC1 transmembrane receptor. Type of data set: cell-based, human. To be noted: GWARA, HWAQA, PWAYS, QWAMM, increasing minocycline, caffeine 100 μM. As for the experimental part:
Flow cytometry was performed using the MACSQuant Analyzer 10 or MACSQuant X (Miltenyi Biotec). All flow cytometry data was analyzed using FlowJo v.7.6.2 software (Tree Star Inc., Ashland, OR). Cell staining was carried out by incubation with PBS containing the recommended concentration of antibodies at RT for 30 min. PBS washes were carried out between antibody staining. Cell viability was determined using viability dye SYTOX Blue Dead Cell Stain (ThermoFisher) prior to flow cytometric analysis. Cells were first gated for singlet population identified by FSC-H and FSC-A. Next, live cells were identified using a viability dye, followed by gating for target cell populations. The antibodies used in the study are as follows: CD3 PECy7 (Biolegend, 317334), Human CD34 APC-conjugated antibody (R&D system, FAB7227A), Human CD34 Alexa Fluor 488-conjugated antibody (R&D system, FAB7227G), Streptavidin PE (Biolegend, 405204), APC antihuman EGFR antibody (Biolegend, 352905), Alexa Fluor 488 antihuman EGFR antibody (Biolegend, 352907), PE anti-HA.11 Epitope Tag antibody (Biolegend, 901517), Anti-M13-HRP (Sino Biologics, 1197 mm05T-H), Anti-Myc-HRP (Genscript, A00863), and SYTOX Blue Dead Cell Stain (ThermoFisher, S10274).

In data set [2] the test system is MinoCAR-transduced PBMC against SupT1-EGFR+ target cells. Type of data set: cell-based. To be noted: compared to 0 μM minocycline. As for the experimental part: Transduced CAR T cells were determined by staining for the transduction marker RQR8 and normalized by the addition of nontransduced T cells. Effector cells were cocultured with 5.0 × 10^4 number of target cells (SupT1-NT, SupT1-EGFR+, SKOV3-mKate) to achieve the desired effector cell to target ratio. […] Cocultures were incubated for 24–72 h at 37 °C and 5% CO2. After incubation, plates were centrifuged at 400g for 5 min, and the supernatant containing secreted cytokines was collected for cytokine analysis. Cells were stained with anti-hCD34-APC and anti-CD3-PeCy7 to differentiate effector T cells and target cells. Cells were washed with 300 μL o PBS and stained with SYTOX Blue Dead Cell Stain dye. The percentage of target cell survival was measured relative to the number of live target cells cocultured with nonspecific CAR T cells or nontransduced PBMCs.

For data set [3], the system named is MinoCAR-transduced PBMC against SKOV3 EGFR+ target cells. The experiment in a line: Tunability and reversibility assays (Incucyte kinetics of cytotoxicity). Type of data set: cell-based, human. To be noted: minocycline 0 to 10 μM, 1:2 E/T.
Description: EGFR+ SKOV3-mKate cells were seeded at 1.0 × 10^4 cells per well in a TC-treated flat-bottomed 96-well plate. For reversibility experiments, MinoCAR ON–OFF kinetics were tested by preactivating CAR T cells by incubating cells for 2 h on plates precoated with recombinant EGFR (10 μg/mL). CAR T cells were washed using 15 mL of PBS prior to coculture. […] Cells were then washed using 15 mL of PBS prior to coculture. Untreated CAR T cells were used as a control and were directly preceded to coculturing set. […] The Incucyte ZOOM Live-Cell Analysis System was used to carry out image capture at a rate of one image every 1 h for 150 h. […] The image capture rate of each condition was set at 1 image per hour for 72 h.
Another data set concerns Nalm6 EGFR+ tumor. The experiment in a line: Xenograft model with NALM6, BLI readout. Type of data set: in vivo, NSG mice. To be noted: minocycline hydrochloride 0.4 mg i.p. every 2–3 days; day 7 to 13 post CAR-T. As for the experimental part: All animal studies were carried out in accordance with a UK Home Office-approved project license and were approved by the UCL Biological Services Ethical Review Committee. NSG mice (female, aged 6–10 weeks) were acquired from Charles River Laboratories and raised under pathogen-free conditions. On day 4, 0.5 × 10^6 Nalm6 cells engineered to express EGFR and HA-luciferase were injected intravenously into NSG mice. Tumor engraftment was assessed through bioluminescence imaging, employing the IVIS Spectrum system (PerkinElmer) following intraperitoneal injection of 2 mg D-luciferin. Photon emission from EGFR^+ NALM6-FLuc cells, expressed in photon per second per cm^2 per steradian, was quantified using Living Image software (PerkinElmer). On day 0, mice were randomly assigned to different cohorts prior to intravenous injection of 1 × 10^6 CAR T cells. The experiment was conducted without blinding; however, the use of bioluminescence imaging provides an objective assessment of tumor growth in this model. […] Intraperitoneal injection of 100 μL (0.4 mg) was administered every 2–3 days.

Data set [4] relates to MinoUniCAR-transduced PBMCs. Description: MinoUniCAR IFN-γ release with EGFR-peptide adaptor. Type of data set: cell-based, human. To be noted: 10 vs 0 μM minocycline. As for the experimental part:
(§1) IFN-γ, IL2, and IL12 secretion was measured by collecting the supernatant from the respective cell-based assay and frozen at −20 °C prior to analysis by ELISA. IFN-γ, IL2, and IL12 ELISAs were carried out using the Human IFN-γ ELISA MAX Deluxe kit, Human IL2 ELISA MAX Deluxe kit, and Human IL12 (p70) ELISA MAX Deluxe kit in accordance with the manufacturer’s instructions (BioLegend).
(§2) Transduced PBMCs were stained using RQR8 expression and V5 markers. Cells were then normalized to 50% efficiency by diluting with nontransduced T cells. The tumor-targeting adaptor protein (EGFR sdAb) fused to the GWARA peptide was separately expressed by CHO cell transient transfection and purified by His-tag chromatography. […] IFN-γ secretion was measured as described above.

Data set [5] deals with MinoUniCAR-transduced PBMCs against SupT1-EGFR+ cells. The experiment in a line: MinoUniCAR cytotoxicity with EGFR-peptide adaptor. Type of data set: cell-based, human. To be noted: 10 μM minocycline, 24 h, 1:2 E/T. As for the experimental part: Transduced CAR T cells were determined by staining for the transduction marker RQR8 and normalized by the addition of nontransduced T cells. Effector cells were cocultured with 5.0 × 10^4 number of target cells (SupT1-NT, SupT1-EGFR+, SKOV3-mKate) to achieve the desired effector cell to target ratio. Where appropriate, minocycline was supplemented as a part of the culture conditions. Cocultures were incubated for 24–72 h at 37 °C and 5% CO2. After incubation, plates were centrifuged at 400g for 5 min, and the supernatant containing secreted cytokines was collected for cytokine analysis. Cells were stained with anti-hCD34-APC and anti-CD3-PeCy7 to differentiate effector T cells and target cells. Cells were washed with 300 μL o PBS and stained with SYTOX Blue Dead Cell Stain dye. The percentage of target cell survival was measured relative to the number of live target cells cocultured with nonspecific CAR T cells or nontransduced PBMCs.
as §2

In data set [6] the test system is MyD88/CD40 signaling in transduced PBMCs. Description: IFN-γ secretion of PBMCs with aMinoC1/GWARA-MyD88/CD40 module. The format is cell-based, human. To be noted: increasing concentrations of minocycline. As for the experimental part: as §1
Data set [7] concerns SupT1 GWARA-CD8stk-CD28TM and SupT1 aMinoC1-CD8stk-CD28TM cells. The experiment in a line: Cell–cell binding assay (aggregate formation). The format is cell-based, human. To be noted: 10 μM minocycline, 24 h time course. As for the experimental part:
SupT1 cells were transduced to express GWARA-CD8a spacer-CD28TM-2A-mCherry and aMinoC1 sdAb-CD8 spacer-CD28TM-2A-eGFP. 0.5 × 10^4 cells were cocultured in RPMI (RPMI-1640) supplemented with 10% fetal bovine serum (FBS) and 2 mM GlutaMAX. […] Images were captured using an IncuCyte real-time imager. Time-course images were analyzed using ImageJ (NIH v1.53t) using an image analyzer (20 px^2-infinite size, 0.0–1.0 circularity).

The conditions of data set [8]: in vivo; cited from earlier work.

Entries after “also recorded” stand apart in the source; their conditions may differ. Like-named read-outs stand apart in the source and are kept apart here.

Turning to `CN(C)c1ccc(O)c2c1C[C@H]1C[C@H]3[C@H](N(C)C)C(O)=C(C(N)=O)C(=O)[C@@]3(O)C(O)=C1C2=O` [minocycline], the “peptide-muIgG2a Fc binding to membrane-bound aMinoC1 in presence of small molecule” value in [1] is “Dose-dependent reduction of peptide-muIgG2a Fc binding”. In addition, the “peptide-muIgG2a Fc binding to membrane-bound aMinoC1 in presence of small molecule” value in [1] (listed as Minocycline) is on record as “concentration-dependent reduction in peptide binding”. The “increase in target cell survival” value in [2] (24 h) stood at 2.5 fold. Also, the “increase in target cell survival” value in data set [2] (72 h) is reported as 35 fold. The “SKOV3 target cell killing kinetics” value in data set [3] is “dose-dependent decrease in SKOV3 target cell killing”. The “effect of minocycline on MinoCAR efficacy (BLI)” value in the data set with Nalm6 EGFR+ tumor is reported as “Significant inhibition of MinoCAR; also recorded: significantly reduced MinoCAR efficacy”. Besides, the “cytokine (IFN-γ) reduction” value in data set [4] worked out at 10 fold. Also, the target cell survival in [5] is listed as 95%. Also, the “decrease of IFN-γ secretion” value in data set [6] is on record as 2 fold. Besides, in data set [7], the cell aggregate formation result is listed as “random distribution of cells without a clear spatial organization”. In addition, in data set [8], the “blood–brain barrier crossing” value is listed as “can cross the blood–brain barrier”, the half-life in blood is 12 to 24 h and the “time of serum concentration peak” value was 2 to 3 h.

Source of the values: PMC10877577 (ACS Chemical Biology, 2024).
